This is an account of results in PubChem BioAssay (NCI).

Some test systems named below: 786-0 renal; CAKI-1 renal; IGROV1 ovarian; M14 melanoma; MALME-3M melanoma; MDA-MB-231 breast; OVCAR-5 ovarian; RPMI-8226 leukemia; SK-MEL-5 melanoma; UACC-257 melanoma.
Holding throughout (test): NCI-60 cell line screen, 48 h

Values joined by “and” are separate entries in the source; they are usually repeats but may differ in a detail not shown here. Identical values can stand only once.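 All cell lines were grown in 96-well plates and treated with compound for 48 hours. At the GI50, growth is halved. TGI marks complete inhibition of growth.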 A value given as a limit tells only on which side of the number the result lay.

Take `COc1ccc(C2=Nn3c(nnc3-c3ccc(F)c(Cl)c3)SC2)cc1`: the GI50 was above 100 µM with 786-0 renal; above 100 µM in the test on CAKI-1 renal; above 100 µM in the test on IGROV1 ovarian; above 100 µM in the test on M14 melanoma; above 100 µM in the test with MALME-3M melanoma; 29.5 µM in the test with MDA-MB-231 breast. The GI50 in the test with OVCAR-5 ovarian is 84.6 µM; in the test with RPMI-8226 leukemia, above 100 µM; in the test on SK-MEL-5 melanoma it was above 100 µM; in the test with UACC-257 melanoma, above 100 µM. Further, the TGI in the test on 786-0 renal, with CAKI-1 renal, in the test with IGROV1 ovarian, in the test on M14 melanoma, in the test with MALME-3M melanoma and with MDA-MB-231 breast was above 100 µM each time. Besides, the TGI with OVCAR-5 ovarian, with RPMI-8226 leukemia, in the test with SK-MEL-5 melanoma and in the test on UACC-257 melanoma was above 100 µM in each case.
As for `O=C(O)CCC(O)=C1S(=O)(=O)OCCOS1(=O)=O`, the TGI in the test with 786-0 renal, in the test on CAKI-1 renal, in the test on IGROV1 ovarian, in the test with M14 melanoma, in the test with MALME-3M melanoma and with MDA-MB-231 breast was above 100 µM throughout. Also, the TGI in the test on OVCAR-5 ovarian, in the test on RPMI-8226 leukemia, in the test with SK-MEL-5 melanoma and in the test on UACC-257 melanoma was above 100 µM each time.
Take `COc1ccc(CCN2CCCn3c2nc2ccccc2c3=O)cc1`: the GI50 in the test on 786-0 renal is 0.299 µM; in the test with CAKI-1 renal it was 0.252 µM; in the test with IGROV1 ovarian, 0.109 µM; with M14 melanoma it was 0.0463 µM; in the test on MALME-3M melanoma, 0.0538 µM; in the test with MDA-MB-231 breast, 0.408 µM. Besides, the GI50 in the test on OVCAR-5 ovarian is 0.95 µM; with RPMI-8226 leukemia, 0.353 µM; in the test with SK-MEL-5 melanoma it was 0.0433 µM; with UACC-257 melanoma it was above 100 µM. The TGI in the test on 786-0 renal, in the test with CAKI-1 renal, in the test on IGROV1 ovarian, in the test with M14 melanoma, in the test on MALME-3M melanoma and with MDA-MB-231 breast was above 100 µM throughout. The TGI in the test with OVCAR-5 ovarian is above 100 µM; in the test with RPMI-8226 leukemia it was above 100 µM; in the test with SK-MEL-5 melanoma, 4.44 µM; in the test on UACC-257 melanoma it was above 100 µM.
In the case of `CN[C@@H](C)C(=O)N[C@H](C(=O)N1CCC[C@H]1c1nc(C(=O)c2ccc(F)cc2)cs1)C1CCCCC1`, the GI50 was 17.1 µM with 786-0 renal; 34.9 µM in the test with CAKI-1 renal; 33.9 µM in the test with IGROV1 ovarian; 19.4 µM in the test with M14 melanoma; 4.08 µM with MALME-3M melanoma; 0.324 µM in the test with MDA-MB-231 breast. The GI50 in the test with OVCAR-5 ovarian was 27 µM; with RPMI-8226 leukemia it was 16.6 µM; in the test with SK-MEL-5 melanoma, 13.6 µM; in the test with UACC-257 melanoma, 15.1 µM. For the same compound, the TGI with 786-0 renal was 34 µM; in the test with CAKI-1 renal, above 100 µM; in the test with IGROV1 ovarian, above 100 µM; with M14 melanoma, 38.4 µM; with MALME-3M melanoma, 20 µM; with MDA-MB-231 breast, 20.6 µM. Further, the TGI in the test on OVCAR-5 ovarian is above 78.9 µM; in the test on RPMI-8226 leukemia, 55.4 µM; in the test on SK-MEL-5 melanoma, 28.7 µM; with UACC-257 melanoma, 31.2 µM.
On to `COc1cc(/C=C/C(=O)c2c(C)n([O-])c3ccccc3[n+]2=O)cc(OC)c1OC`, for which the GI50 is 6.94 µM in the test on 786-0 renal; 7.61 µM in the test with CAKI-1 renal; 3.99 µM with IGROV1 ovarian; 5.28 µM in the test on M14 melanoma; 11.4 µM with MALME-3M melanoma; 9.57 µM in the test on MDA-MB-231 breast. Also, the GI50 was 11.6 µM with OVCAR-5 ovarian, 3.58 µM with RPMI-8226 leukemia, 3.62 µM with SK-MEL-5 melanoma and 6.48 µM with UACC-257 melanoma. In addition, the TGI in the test with 786-0 renal was 20.1 µM; in the test on CAKI-1 renal it was 20.7 µM; in the test on IGROV1 ovarian it was 15.6 µM; in the test on M14 melanoma, 18.8 µM; in the test with MALME-3M melanoma it was 26.7 µM; in the test on MDA-MB-231 breast, 22.4 µM. The TGI turned out to be 24.6 µM in the test on OVCAR-5 ovarian, 22.8 µM in the test with RPMI-8226 leukemia, 13.4 µM in the test with SK-MEL-5 melanoma and 20.5 µM with UACC-257 melanoma.
Regarding `OCc1c(-c2cccs2)oc(-c2cccs2)c1CO`, the GI50 was above 100 µM in the test with 786-0 renal; 38.2 µM in the test with CAKI-1 renal; 58.3 µM in the test on IGROV1 ovarian; 47.8 µM in the test with M14 melanoma; 30.1 µM with MALME-3M melanoma; 47.3 µM with MDA-MB-231 breast. The GI50 is 69.2 µM in the test with OVCAR-5 ovarian, 41.5 µM in the test with RPMI-8226 leukemia, 39 µM in the test on SK-MEL-5 melanoma and 56.1 µM in the test with UACC-257 melanoma. Moreover, the TGI in the test on 786-0 renal is above 100 µM; with CAKI-1 renal, 94.9 µM; in the test with IGROV1 ovarian, above 100 µM; in the test with M14 melanoma it was above 100 µM; with MALME-3M melanoma it was 94.6 µM; in the test with MDA-MB-231 breast, 94 µM. Moreover, the TGI with OVCAR-5 ovarian, with RPMI-8226 leukemia, with SK-MEL-5 melanoma and in the test with UACC-257 melanoma was above 100 µM in each case.
As to `COc1ccc(-c2cn(C)c3c2-n2cccc2C3=O)cc1O`, the GI50 with 786-0 renal is 9.86 µM; with CAKI-1 renal, 2.09 µM; in the test on IGROV1 ovarian, 26.9 µM; in the test on M14 melanoma it was 6.57 µM; in the test with MALME-3M melanoma, 1.77 µM; with MDA-MB-231 breast, 3.65 µM. Moreover, the GI50 in the test on OVCAR-5 ovarian was 5.74 µM; in the test with RPMI-8226 leukemia, 2.05 µM; in the test with SK-MEL-5 melanoma it was 1.4 µM; with UACC-257 melanoma, 15.9 µM. Further, the TGI in the test with 786-0 renal stood at 30.7 µM; in the test on CAKI-1 renal it was 7.77 µM; in the test on IGROV1 ovarian, 75.2 µM; with M14 melanoma, 20.3 µM; in the test on MALME-3M melanoma, 9.28 µM; in the test with MDA-MB-231 breast, 29.8 µM. Moreover, the TGI in the test with OVCAR-5 ovarian came to 25.2 µM; in the test with RPMI-8226 leukemia it was 17.5 µM; in the test with SK-MEL-5 melanoma, 5.93 µM; with UACC-257 melanoma it was 32.9 µM.
For the compound `CCC/C=C/C=C/C(=O)OC1/C(=C/C(=O)OC)CC2CC(C(C)O)OC(=O)CC(O)CC3CC(OC(C)=O)C(C)(C)C(O)(CC4C/C(=C/C(=O)OC)CC(/C=C/C(C)(C)C1(O)O2)O4)O3` (centres undefined), the GI50 is above 12.5 µM in the test with 786-0 renal; 2.79 µM and 4.05 µM and > 12.5 µM with CAKI-1 renal; > 10.9 µM and 5.09 µM and > 12.5 µM with IGROV1 ovarian; 5.71 µM and > 12.5 µM with MALME-3M melanoma; above 12.5 µM in the test with MDA-MB-231 breast; above 11 µM in the test with OVCAR-5 ovarian. For the same compound, the GI50 in the test on RPMI-8226 leukemia was 8.95 µM and > 12.5 µM; in the test with SK-MEL-5 melanoma, 7.86 µM and 1.9 µM and > 12.5 µM; in the test on UACC-257 melanoma, 5.13 µM and 8.15 µM and > 12.5 µM. Besides, the TGI in the test on 786-0 renal is 11 µM and > 12.5 µM; with CAKI-1 renal it was 10.9 µM and 11 µM and > 12.5 µM; with IGROV1 ovarian, > 10.9 µM and 6.06 µM and > 12.5 µM; in the test on M14 melanoma, above 11 µM; in the test with MALME-3M melanoma, 11 µM and > 12.5 µM; in the test with MDA-MB-231 breast it was 11 µM and > 12.5 µM. Further, the TGI with OVCAR-5 ovarian was above 12.5 µM; with RPMI-8226 leukemia, > 10.9 µM and 11 µM and > 12.5 µM; with SK-MEL-5 melanoma, 10.9 µM and 11 µM and > 12.5 µM; with UACC-257 melanoma, 6.42 µM and 11 µM and > 12.5 µM.
